Measured values: ChEMBL document CHEMBL4387741, “Optimization of novel reversible Bruton's tyrosine kinase inhibitors identified using Tethering-fragment-based screens” (Bioorg Med Chem, 2019)

How the values were obtained:
[1] = target: Serine/threonine-protein kinase 32A (Homo sapiens) (UniProt Q8WU08); assay: Inhibition of wild-type human full length YANK1 (M1 to L396 residues) expressed in mammalian expression system at 1 uM by Kinomescan method relative to control
[2] = target: Dual specificity protein kinase CLK2 (Homo sapiens) (UniProt P49760); assay: Inhibition of wild-type human partial length CLK2 (D144 to R498 residues) expressed in bacterial expression system at 1 uM by Kinomescan method relative to control
[3] = target: Serine/threonine-protein kinase 33 (Homo sapiens) (UniProt Q9BYT3); assay: Inhibition of wild-type human full length STK33 (M1 to L514 residues) expressed in bacterial expression system at 1 uM by Kinomescan method relative to control
[4] = target: Calcium/calmodulin-dependent protein kinase type II subunit delta (Homo sapiens) (UniProt Q13557); assay: Inhibition of wild-type human partial length CAMK2D (M1 to E329 residues) expressed in bacterial expression system at 1 uM by Kinomescan method relative to control
[5] = target: Serine/threonine-protein kinase Sgk2 (Homo sapiens) (UniProt Q9HBY8); assay: Inhibition of wild-type human partial length SGK2 (L54 to C427 residues) expressed in mammalian expression system at 1 uM by Kinomescan method relative to control
[6] = target: Interleukin-1 receptor-associated kinase 1 (Homo sapiens) (UniProt P51617); assay: Inhibition of wild-type human partial length IRAK1 (R194 to S712 residues) expressed in mammalian expression system at 1 uM by Kinomescan method relative to control
[7] = target: Mitogen-activated protein kinase kinase kinase kinase 3 (Homo sapiens) (UniProt Q8IVH8); assay: Inhibition of wild-type human partial length MAP4K3 (M1 to D301 residues) expressed in bacterial expression system at 1 uM by Kinomescan method relative to control
[8] = test system: Phosphatidylinositol 4,5-bisphosphate 3-kinase catalytic subunit alpha isoform (Homo sapiens), P42336 [E545A]; assay: Inhibition of human partial length PIK3CA E545A mutant (R108 to N1068 residues) expressed in mammalian expression system at 1 uM by Kinomescan method relative to control
[9] = target: Serine/threonine-protein kinase PAK 1 (Homo sapiens) (UniProt Q13153); assay: Inhibition of wild-type human partial length PAK1 (S149 to H545 residues) expressed in bacterial expression system at 1 uM by Kinomescan method relative to control
[10] = target: Serine/threonine-protein kinase PAK 2 (Homo sapiens) (UniProt Q13177); assay: Inhibition of wild-type human partial length PAK2 (P151 to R525 residues) expressed in bacterial expression system at 1 uM by Kinomescan method relative to control
[11] = target: Vascular endothelial growth factor receptor 1 (Homo sapiens) (UniProt P17948); assay: Inhibition of wild-type human partial length FLT1 (R781 to F1239 residues) expressed in bacterial expression system at 1 uM by Kinomescan method relative to control
[12] = target: Mitogen-activated protein kinase kinase kinase 4 (Homo sapiens) (UniProt Q9Y6R4); assay: Inhibition of wild-type human partial length MAP3K4 (G1319 to E1608 residues) expressed in bacterial expression system at 1 uM by Kinomescan method relative to control
[13] = target: Serine/threonine-protein kinase D3 (Homo sapiens) (UniProt O94806); assay: Inhibition of wild-type human partial length PRKD3 (S543 to E863 residues) expressed in bacterial expression system at 1 uM by Kinomescan method relative to control
[14] = target: Serine/threonine-protein kinase D2 (Homo sapiens) (UniProt Q9BZL6); assay: Inhibition of wild-type human partial length PRKD2 (A519 to E838 residues) expressed in bacterial expression system at 1 uM by Kinomescan method relative to control
[15] = target: Megakaryocyte-associated tyrosine-protein kinase (Homo sapiens) (UniProt P42679); assay: Inhibition of wild-type human full length CTK (M43 to P508 residues) expressed in mammalian expression system at 1 uM by Kinomescan method relative to control
[16] = target: Serine/threonine-protein kinase TBK1 (Homo sapiens) (UniProt Q9UHD2); assay: Inhibition of wild-type human full length TBK1 (M1 to L729 residues) expressed in mammalian expression system at 1 uM by Kinomescan method relative to control
[17] = target: Tyrosine-protein kinase ABL2 (Homo sapiens) (UniProt P42684); assay: Inhibition of wild-type human ABL2 (A248 to G542 residues) expressed in bacterial expression system at 1 uM by Kinomescan method relative to control
[18] = target: Casein kinase I isoform gamma-3 (Homo sapiens) (UniProt Q9Y6M4); assay: Inhibition of wild-type human full length CSNK1G3 (M1 to K447 residues) expressed in bacterial expression system at 1 uM by Kinomescan method relative to control
[19] = target: Serine/threonine-protein kinase NIM1 (Homo sapiens) (UniProt Q8IY84); assay: Inhibition of wild-type human partial length NIM1 (Q44 to N355 residues) expressed in mammalian expression system at 1 uM by Kinomescan method relative to control
[20] = target: Casein kinase I isoform alpha-like (Homo sapiens) (UniProt Q8N752); assay: Inhibition of wild-type human full length CSNK1A1L (M1 to N337 residues) expressed in bacterial expression system at 10 uM by Kinomescan method relative to control
[21] = test system: Tyrosine-protein kinase ABL1 (Homo sapiens), P00519 [T315I]; assay: Inhibition of human phosphorylated ABL1 T315I mutant (S229 to K512 residues) expressed in mammalian expression system at 10 uM by Kinomescan method relative to control
[22] = test system: Tyrosine-protein kinase ABL1 (Homo sapiens), P00519 [H396P]; assay: Inhibition of human non-phosphorylated ABL1 H396P mutant (S229 to K512 residues) expressed in mammalian expression system at 10 uM by Kinomescan method relative to control
[23] = test system: Epidermal growth factor receptor (Homo sapiens), P00533 [L858R]; assay: Inhibition of human partial length EGFR L858R mutant (R669 to V1011 residues) expressed in bacterial expression system at 10 uM by Kinomescan method relative to control
[24] = target: Serine/threonine-protein kinase PAK 6 (Homo sapiens) (UniProt Q9NQU5); assay: Inhibition of wild-type human partial length PAK6 (N298 to C681 residues) expressed in bacterial expression system at 10 uM by Kinomescan method relative to control
[25] = target: Rho-associated protein kinase 1 (Homo sapiens) (UniProt Q13464); assay: Inhibition of wild-type human partial length ROCK1 (M1 to R415 residues) expressed in mammalian expression system at 10 uM by Kinomescan method relative to control
[26] = target: Serine/threonine-protein kinase Sgk2 (Homo sapiens) (UniProt Q9HBY8); assay: Inhibition of wild-type human partial length SGK2 (L54 to C427 residues) expressed in mammalian expression system at 10 uM by Kinomescan method relative to control
[27] = target: Dual specificity tyrosine-phosphorylation-regulated kinase 1B (Homo sapiens) (UniProt Q9Y463); assay: Inhibition of wild-type human full length DYRK1B (M1 to S629 residues) expressed in bacterial expression system at 10 uM by Kinomescan method relative to control

Sequence of Serine/threonine-protein kinase Sgk2 (Homo sapiens) (Q9HBY8 whole entry, the tested form may be a part): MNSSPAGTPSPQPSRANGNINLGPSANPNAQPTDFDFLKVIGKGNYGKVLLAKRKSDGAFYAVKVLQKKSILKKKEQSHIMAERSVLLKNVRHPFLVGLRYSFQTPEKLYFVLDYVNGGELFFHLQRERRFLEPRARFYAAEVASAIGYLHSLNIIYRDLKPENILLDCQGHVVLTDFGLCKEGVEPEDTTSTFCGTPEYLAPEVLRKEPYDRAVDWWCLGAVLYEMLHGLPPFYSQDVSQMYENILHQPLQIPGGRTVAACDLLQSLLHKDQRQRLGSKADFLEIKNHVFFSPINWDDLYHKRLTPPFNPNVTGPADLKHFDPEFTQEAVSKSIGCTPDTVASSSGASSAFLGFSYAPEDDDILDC
Sequence of Serine/threonine-protein kinase 33 (Homo sapiens) (Q9BYT3 whole entry, looked up, the tested form may be a part): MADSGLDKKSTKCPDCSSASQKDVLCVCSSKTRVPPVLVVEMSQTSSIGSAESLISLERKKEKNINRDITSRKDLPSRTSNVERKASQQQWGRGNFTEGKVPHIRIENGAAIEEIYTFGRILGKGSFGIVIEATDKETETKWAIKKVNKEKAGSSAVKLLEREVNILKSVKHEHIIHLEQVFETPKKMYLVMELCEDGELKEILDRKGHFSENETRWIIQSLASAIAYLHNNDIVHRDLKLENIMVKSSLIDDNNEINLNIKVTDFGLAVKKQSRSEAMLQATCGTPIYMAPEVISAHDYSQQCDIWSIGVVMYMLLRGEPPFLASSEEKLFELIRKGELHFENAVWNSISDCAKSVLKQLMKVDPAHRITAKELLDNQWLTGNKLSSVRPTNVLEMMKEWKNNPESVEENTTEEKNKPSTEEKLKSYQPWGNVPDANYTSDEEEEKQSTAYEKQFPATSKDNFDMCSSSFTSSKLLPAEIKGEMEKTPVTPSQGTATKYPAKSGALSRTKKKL
Sequence of Serine/threonine-protein kinase NIM1 (Homo sapiens) (Q8IY84 whole entry, the tested form may be a part, canonical isoform): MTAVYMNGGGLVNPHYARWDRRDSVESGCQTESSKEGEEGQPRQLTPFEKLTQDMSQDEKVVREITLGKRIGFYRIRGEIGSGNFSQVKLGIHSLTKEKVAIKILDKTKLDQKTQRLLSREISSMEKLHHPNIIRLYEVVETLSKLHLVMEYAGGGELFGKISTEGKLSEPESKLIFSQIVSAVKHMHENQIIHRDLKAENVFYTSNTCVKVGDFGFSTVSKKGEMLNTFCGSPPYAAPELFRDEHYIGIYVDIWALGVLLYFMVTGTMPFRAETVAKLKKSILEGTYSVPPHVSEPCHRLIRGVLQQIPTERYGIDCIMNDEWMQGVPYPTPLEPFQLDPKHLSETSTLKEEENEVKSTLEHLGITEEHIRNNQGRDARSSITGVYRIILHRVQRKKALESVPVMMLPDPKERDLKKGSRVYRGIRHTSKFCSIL
Sequence of Serine/threonine-protein kinase 32A (Homo sapiens) (Q8WU08 whole entry, the tested form may be a part): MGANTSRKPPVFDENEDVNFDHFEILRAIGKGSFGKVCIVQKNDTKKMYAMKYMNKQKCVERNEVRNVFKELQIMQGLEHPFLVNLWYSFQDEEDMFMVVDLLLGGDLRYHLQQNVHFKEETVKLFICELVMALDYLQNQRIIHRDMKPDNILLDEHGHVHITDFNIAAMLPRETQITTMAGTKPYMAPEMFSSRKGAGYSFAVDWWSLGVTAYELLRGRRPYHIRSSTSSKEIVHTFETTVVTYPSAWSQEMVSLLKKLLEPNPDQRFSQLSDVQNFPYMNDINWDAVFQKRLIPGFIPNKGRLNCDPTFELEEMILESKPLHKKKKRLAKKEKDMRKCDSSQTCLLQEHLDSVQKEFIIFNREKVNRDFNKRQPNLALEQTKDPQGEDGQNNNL
Sequence of Phosphatidylinositol 4,5-bisphosphate 3-kinase catalytic subunit alpha isoform (Homo sapiens), P42336 [E545A] (P42336 whole entry E545A, the tested form may be a part, canonical isoform): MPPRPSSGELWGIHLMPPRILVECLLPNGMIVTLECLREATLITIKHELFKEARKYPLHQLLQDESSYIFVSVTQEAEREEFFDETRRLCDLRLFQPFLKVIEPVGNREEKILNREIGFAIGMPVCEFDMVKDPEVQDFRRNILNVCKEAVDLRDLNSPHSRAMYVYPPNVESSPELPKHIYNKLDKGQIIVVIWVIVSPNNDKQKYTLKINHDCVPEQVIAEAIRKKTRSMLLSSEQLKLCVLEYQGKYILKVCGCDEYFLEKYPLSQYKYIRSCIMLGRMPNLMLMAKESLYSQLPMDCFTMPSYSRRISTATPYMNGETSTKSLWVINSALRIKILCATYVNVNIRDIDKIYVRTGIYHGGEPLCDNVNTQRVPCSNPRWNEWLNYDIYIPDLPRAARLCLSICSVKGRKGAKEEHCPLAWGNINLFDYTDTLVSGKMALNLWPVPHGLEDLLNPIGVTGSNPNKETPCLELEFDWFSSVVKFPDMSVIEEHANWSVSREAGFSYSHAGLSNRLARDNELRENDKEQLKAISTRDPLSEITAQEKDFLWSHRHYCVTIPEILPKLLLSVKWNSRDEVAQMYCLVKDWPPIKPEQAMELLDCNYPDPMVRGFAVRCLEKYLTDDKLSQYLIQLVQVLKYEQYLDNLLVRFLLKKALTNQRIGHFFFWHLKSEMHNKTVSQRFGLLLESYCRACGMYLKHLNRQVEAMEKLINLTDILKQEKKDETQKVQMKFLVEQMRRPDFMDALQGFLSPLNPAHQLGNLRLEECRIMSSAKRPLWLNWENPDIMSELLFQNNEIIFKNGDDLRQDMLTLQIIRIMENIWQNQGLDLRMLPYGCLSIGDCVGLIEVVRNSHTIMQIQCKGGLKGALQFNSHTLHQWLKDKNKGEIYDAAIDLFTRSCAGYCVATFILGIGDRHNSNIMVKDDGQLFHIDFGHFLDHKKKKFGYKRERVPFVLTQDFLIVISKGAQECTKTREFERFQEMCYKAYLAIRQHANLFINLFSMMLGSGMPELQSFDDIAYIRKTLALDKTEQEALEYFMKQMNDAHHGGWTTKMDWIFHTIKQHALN
Sequence of Serine/threonine-protein kinase TBK1 (Homo sapiens) (Q9UHD2 whole entry, the tested form may be a part): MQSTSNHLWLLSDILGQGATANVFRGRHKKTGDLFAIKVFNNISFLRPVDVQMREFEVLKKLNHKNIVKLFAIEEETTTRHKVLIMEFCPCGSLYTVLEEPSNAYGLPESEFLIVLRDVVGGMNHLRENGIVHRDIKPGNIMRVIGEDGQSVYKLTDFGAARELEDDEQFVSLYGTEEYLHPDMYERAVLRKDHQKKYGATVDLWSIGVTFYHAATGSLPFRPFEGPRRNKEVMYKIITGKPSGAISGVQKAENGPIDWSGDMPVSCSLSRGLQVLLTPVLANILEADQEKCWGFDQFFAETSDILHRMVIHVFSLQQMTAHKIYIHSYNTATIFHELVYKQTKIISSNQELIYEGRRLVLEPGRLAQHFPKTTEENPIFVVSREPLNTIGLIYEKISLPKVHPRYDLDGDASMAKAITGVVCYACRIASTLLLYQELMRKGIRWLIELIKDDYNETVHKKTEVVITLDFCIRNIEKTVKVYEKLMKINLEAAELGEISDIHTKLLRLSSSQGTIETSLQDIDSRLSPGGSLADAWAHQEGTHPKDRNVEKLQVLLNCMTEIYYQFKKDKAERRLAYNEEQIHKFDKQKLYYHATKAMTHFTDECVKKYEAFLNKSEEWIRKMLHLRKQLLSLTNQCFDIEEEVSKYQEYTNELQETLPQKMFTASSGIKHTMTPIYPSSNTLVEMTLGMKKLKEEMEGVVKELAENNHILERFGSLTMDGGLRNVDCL
Sequence of Calcium/calmodulin-dependent protein kinase type II subunit delta (Homo sapiens) (Q13557 whole entry, the tested form may be a part): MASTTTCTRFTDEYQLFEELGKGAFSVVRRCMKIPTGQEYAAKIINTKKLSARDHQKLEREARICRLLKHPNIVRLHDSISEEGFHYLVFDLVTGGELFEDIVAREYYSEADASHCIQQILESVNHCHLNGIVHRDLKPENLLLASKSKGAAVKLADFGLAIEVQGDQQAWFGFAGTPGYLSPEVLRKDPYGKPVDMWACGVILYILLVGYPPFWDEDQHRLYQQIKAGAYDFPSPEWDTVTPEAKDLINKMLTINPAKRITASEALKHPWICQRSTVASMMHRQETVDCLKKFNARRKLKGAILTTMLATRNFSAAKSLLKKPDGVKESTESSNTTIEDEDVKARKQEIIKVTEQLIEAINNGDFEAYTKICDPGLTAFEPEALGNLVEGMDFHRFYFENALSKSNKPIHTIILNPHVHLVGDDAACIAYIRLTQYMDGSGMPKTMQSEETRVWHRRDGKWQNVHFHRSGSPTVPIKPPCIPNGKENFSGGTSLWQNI
Sequence of Interleukin-1 receptor-associated kinase 1 (Homo sapiens) (P51617 whole entry, looked up, the tested form may be a part): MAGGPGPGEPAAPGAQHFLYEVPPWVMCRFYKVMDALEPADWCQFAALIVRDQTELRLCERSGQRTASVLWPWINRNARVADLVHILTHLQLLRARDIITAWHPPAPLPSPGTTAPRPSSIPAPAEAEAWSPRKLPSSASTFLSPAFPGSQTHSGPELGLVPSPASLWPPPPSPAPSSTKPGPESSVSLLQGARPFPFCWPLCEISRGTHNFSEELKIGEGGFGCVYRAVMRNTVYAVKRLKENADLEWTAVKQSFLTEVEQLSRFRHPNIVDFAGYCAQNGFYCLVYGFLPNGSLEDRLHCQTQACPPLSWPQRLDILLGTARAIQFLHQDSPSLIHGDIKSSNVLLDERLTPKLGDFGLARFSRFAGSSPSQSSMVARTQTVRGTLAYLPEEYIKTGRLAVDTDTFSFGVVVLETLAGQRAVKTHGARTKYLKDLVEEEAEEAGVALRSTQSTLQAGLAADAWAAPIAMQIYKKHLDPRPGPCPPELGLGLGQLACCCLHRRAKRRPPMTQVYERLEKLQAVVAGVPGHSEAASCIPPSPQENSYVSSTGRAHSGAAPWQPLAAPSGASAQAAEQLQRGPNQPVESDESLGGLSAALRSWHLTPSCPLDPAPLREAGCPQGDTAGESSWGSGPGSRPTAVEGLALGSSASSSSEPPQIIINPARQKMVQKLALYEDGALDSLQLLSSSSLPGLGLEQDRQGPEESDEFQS

O=C(Nc1cccc([C@@H]2CN(c3ncnc4[nH]ccc34)CCN2CCO)c1)Nc1c(F)cccc1N1CCCC1
inhibition [1]: 100%
inhibition [2]: 86%
inhibition [3]: 55%
inhibition [4]: 100%
inhibition [5]: 63%
inhibition [6]: 92%
inhibition [7]: 71%
inhibition [8]: 65%
inhibition [9]: 75%
inhibition [10]: 87%
inhibition [11]: 35%
inhibition [12]: 100%
inhibition [13]: 86%
inhibition [14]: 98%
inhibition [15]: 81%
inhibition [16]: 81%
inhibition [17]: 97%
inhibition [18]: 94%
inhibition [19]: 93%

O=C(Nc1cccc([C@H]2CCCN(c3ncnc4[nH]ccc34)C2)c1)Nc1ccccc1N1CCCC1
inhibition [20]: 100%
inhibition [21]: 56%
inhibition [22]: 12%
inhibition [23]: 76%
inhibition [24]: 85%
inhibition [25]: 46%
inhibition [26]: 34%
inhibition [27]: 94%
